Experimental data reported in patent publication US12521393B2, “Cytotoxicity targeting chimeras for CCR2-expressing cells” (GLAXOSMITHKLINE INTELLECTUAL PROPERTY DEVELOPMENT LIMITED, priority 2021, dated 2026).
Counter-ions that a name gives are not always drawn.

Test system: endogenous target monocytes in human PBMC
Experiment: PBMC ex vivo monocyte depletion flow cytometry assay (Example 200)
Format: cell-based
Settings: with anti-cotinine antibody (SEQ ID NO: 11/12), 18-24 hours, EC50 in molar, read-out: Ex Vivo Depletion Assay pEC50 (converted)
Experimental: A human PBMC (peripheral blood mononuclear cells) monocyte depletion flow cytometry assay was developed to screen compounds in a 384-well plate format. This assay incorporated endogenous natural killer cells to deplete endogenous target monocytes.
To screen compounds in the human PBMC monocyte depletion flow cytometry assay, 11-point dose-response curves were made from 1 mM stocks in neat DMSO by serially diluting an ARM compound of Formula (I) four-fold into a 384-well plate row-wise. These serially diluted compounds were then stamped into a flat bottom polypropylene 384-well plate (Greiner Bio-One) at 100 nL/well. Fifty microliters of 30 μg/mL anti-cotinine antibody having a heavy chain sequence of SEQ ID NO: 11 and a light chain sequence of SEQ ID NO: 12 (rabbit variable region with human IgG1 Fc domain containing a DE mutation (S239D/1332E)) that had been diluted in assay medium (RPMI 1640 (Gibco) containing 10% fetal bovine serum (Gibco), 1% Glutamax (Gibco) and 1% sodium pyruvate (Corning) was added to the wells of the plate. The plate was centrifuged for 1 min at 500 rpm (revolutions per minute) and then shaken for 5 min at room temperature. The plate was incubated for 15 minutes at 37° C./5% CO2.
Frozen PBMC cells (HemaCare BioResearch) were thawed and centrifuged at 1,200 rpm for 4 minutes. The cells were diluted to a cell density of 2×10^6 cells/mL in assay medium. Fifty microliters of the diluted cells were added to the wells of the plate. The plate was centrifuged for 1 min at 500 rpm and incubated for 18-24 hours at 37° C./5% CO2.
After 18-24 hours incubation, 2 μL of 6.25 μg human FC block (BD Pharmingen) that was diluted in assay medium was added to the wells of the plate. The plate was centrifuged for 1 minute at 500 rpm and then incubated at room temperature for 15 minutes. Five microliters of 750 nM Helix NP NIR (Biolegend) that had been diluted in assay medium was added to the wells of the plate. Nine microliters of antibody cocktail containing 1/5 diluted fluorescein isothiocyanate (FITC) labeled anti-CD45 antibody (Beckman Coulter), PC7 labeled anti-CD14 antibody (Beckman Coulter) and phyocoerythrin (PE) anti-CD4 antibody (Beckman Coulter) was then added to the wells of the plate. The plate was centrifuged for 1 min at 500 rpm and incubated for 30 minutes at 4-8° C. Samples from the plate were run on BD FACS Canto II flow cytometer and data was analyzed using FlowJo software.
ARMs compounds of Formula (I) of the invention were tested for the ability to deplete monocytes in the above assay in one or more experimental runs and the results are shown in Table 3 below. Potency of the compounds of the invention is reported as a pEC50 value. The pEC50 value is the negative log of the EC50 value, wherein the EC50 value is the half maximal effective concentration measured in molar (M). For compounds tested in more than one experimental run, the pEC50 value is reported as an average or as the individual values measured

Structure (SMILES) | EC50 [nM]
CC(C)N(C)[C@@H]1CC[C@H](N2CC[C@H](Nc3ncnc4ccc(C(F)(F)F)cc34)C2=O)[C@H](NC(=O)[C@H]2CC[C@H](c3ccc(C(=O)NCCOCCOCCNC(=O)[C@H]4CC(=O)N(C)[C@@H]4c4cccnc4)cn3)CC2)C1 [Example 139, 6-((1R,4r)-4-(((1R,2S,5R)-5-(Isopropyl(methyl)amino)-2-((S)-2-oxo-3-((6-(trifluoromethyl)quinazolin-4-yl)amino)pyrrolidin-1-yl)cyclohexyl)carbamoyl)cyclohexyl)-N-(2-(2-(2-((2S,3S)-1-methyl-5-oxo-2-(pyridin-3-yl)pyrrolidine-3-carboxamido)ethoxy)ethoxy)ethyl)nicotinamide] | 5.01
CC(C)N(C)[C@@H]1CC[C@H](N2CC[C@H](Nc3ncnc4ccc(C(F)(F)F)cc34)C2=O)[C@H](NC(=O)c2cnn(C3CCN(CCOCCOCCNC(=O)[C@H]4CC(=O)N(C)[C@@H]4c4cccnc4)CC3)c2)C1 [Example 92, N-((1R,2S,5R)-5-(Isopropyl(methyl)amino)-2-((S)-2-oxo-3-((6-(trifluoromethyl)quinazolin-4-yl)amino)pyrrolidin-1-yl)cyclohexyl)-1-(1-(2-(2-(2-((2S,3S)-1-methyl-5-oxo-2-(pyridin-3-yl)pyrrolidine-3-carboxamido)ethoxy)ethoxy)ethyl)piperidin-4-yl)-1H-pyrazole-4-carboxamide] | 25.1
CC(C)N(C)[C@@H]1CC[C@H](N2CC[C@H](Nc3ncnc4ccc(C(F)(F)F)cc34)C2=O)[C@H](NC(=O)CCCCCCCCC(=O)NCCCCCCCCCCNC(=O)[C@H]2CC(=O)N(C)[C@@H]2c2cccnc2)C1 [Example 165, N^1-((1R,2S,5R)-5-(isopropyl(methyl)amino)-2-((S)-2-oxo-3-((6-(trifluoromethyl)quinazolin-4-yl)amino)pyrrolidin-1-yl)cyclohexyl)-N^10-(10-((2S,3S)-1-methyl-5-oxo-2-(pyridin-3-yl)pyrrolidine-3-carboxamido)decyl)decanediamide] | 0.631
CC(C)N(C)[C@@H]1CC[C@H](N2CC[C@H](Nc3ncnc4ccc(C(F)(F)F)cc34)C2=O)[C@H](NC(=O)c2cc(OCCOCCOCCOCCNC(=O)[C@H]3CC(=O)N(C)[C@@H]3c3cccnc3)ccn2)C1 [Example 89, N-((1R,2S,5R)-5-(Isopropyl(methyl)amino)-2-((S)-2-oxo-3-((6-(trifluoromethyl)quinazolin-4-yl)amino)pyrrolidin-1-yl)cyclohexyl)-4-((1-((2S,3S)-1-methyl-5-oxo-2-(pyridin-3-yl)pyrrolidin-3-yl)-1-oxo-5,8,11-trioxa-2-azatridecan-13-yl)oxy)picolinamide] | 25.1
CC(C)N(C)[C@@H]1CC[C@H](N2CC[C@H](Nc3ncnc4ccc(C(F)(F)F)cc34)C2=O)[C@H](NC(=O)c2ccnc(CCCOCCOCCOCCOCCNC(=O)[C@H]3CC(=O)N(C)[C@@H]3c3cccnc3)c2)C1 [Example 160, N-((1R,2S,5R)-5-(Isopropyl(methyl)amino)-2-((S)-2-oxo-3-((6-(trifluoromethyl)quinazolin-4-yl)amino)pyrrolidin-1-yl)cyclohexyl)-2-(1-((2S,3S)-1-methyl-5-oxo-2-(pyridin-3-yl)pyrrolidin-3-yl)-1-oxo-5,8,11,14-tetraoxa-2-azaheptadecan-17-yl)isonicotinamide, 3Formic acid salt] | 31.6
CC(C)N(C)[C@@H]1CC[C@H](N2CC[C@H](Nc3ncnc4ccc(C(F)(F)F)cc34)C2=O)[C@H](NC(=O)[C@H]2CC[C@@H](NC(=O)C3CCC4(CC3)CCN(C(=O)[C@H]3CC(=O)N(C)[C@@H]3c3cccnc3)CC4)CC2)C1 [Example 95, N-((1S,4R)-4-(((1R,2S,5R)-5-(Isopropyl(methyl)amino)-2-((S)-2-oxo-3-((6-(trifluoromethyl)quinazolin-4-yl)amino)pyrrolidin-1-yl)cyclohexyl)carbamoyl)cyclohexyl)-3-((2S,3S)-1-methyl-5-oxo-2-(pyridin-3-yl)pyrrolidine-3-carbonyl)-3-azaspiro[5.5]undecane-9-carboxamide] | 631
CC(C)N(C)[C@@H]1CC[C@H](N2CC[C@H](Nc3ncnc4ccc(C(F)(F)F)cc34)C2=O)[C@H](NC(=O)[C@H]2CC[C@@H](N3CCC(C(=O)NCCOCCOCCNC(=O)[C@H]4CC(=O)N(C)[C@@H]4c4cccnc4)C(F)(F)C3)CC2)C1 (stereo partly drawn) [Example 132, 3,3-Difluoro-1-((1S,4s)-4-(((1R,2S,5R)-5-(isopropyl(methyl)amino)-2-((S)-2-oxo-3-((6-(trifluoromethyl)quinazolin-4-yl)amino)pyrrolidin-1-yl)cyclohexyl)carbamoyl)cyclohexyl)-N-(2-(2-(2-((2S,3S)-1-methyl-5-oxo-2-(pyridin-3-yl)pyrrolidine-3-carboxamido)ethoxy)ethoxy)ethyl)piperidine-4-carboxamide] | 0.631
CC(C)N(C)[C@@H]1CC[C@H](N2CC[C@H](Nc3ncnc4ccc(C(F)(F)F)cc34)C2=O)[C@H](NC(=O)c2cc(NCCOCCOCCOCCOCCNC(=O)[C@H]3CC(=O)N(C)[C@@H]3c3cccnc3)ncn2)C1 [Example 127, N-((1R,2S,5R)-5-(Isopropyl(methyl)amino)-2-((S)-2-oxo-3-((6-(trifluoromethyl)quinazolin-4-yl)amino)pyrrolidin-1-yl)cyclohexyl)-6-((1-((2S,3S)-1-methyl-5-oxo-2-(pyridin-3-yl)pyrrolidin-3-yl)-1-oxo-5,8,11, 14-tetraoxa-2-azahexadecan-16-yl)amino) pyrimidine-4-carboxamide] | 2
CC(C)N(C)[C@@H]1CC[C@H](N2CC[C@H](Nc3ncnc4ccc(C(F)(F)F)cc34)C2=O)[C@H](NC(=O)COCCNC(=O)CNC(=O)COCCOCCNC(=O)[C@H]2CC(=O)N(C)[C@@H]2c2cccnc2)C1 [Example 78, (2S,3S)-N-(1-(((1R,2S,5R)-5-(Isopropyl(methyl)amino)-2-((S)-2-oxo-3-((6-(trifluoromethyl)quinazolin-4-yl)amino)pyrrolidin-1-yl)cyclohexyl)amino)-1,7,10-trioxo-3,12,15-trioxa-6,9-diazaheptadecan-17-yl)-1-methyl-5-oxo-2-(pyridin-3-yl)pyrrolidine-3-carboxamide] | 2.51
CC(C)N(C)[C@@H]1CC[C@H](N2CC[C@H](Nc3ncnc4ccc(C(F)(F)F)cc34)C2=O)[C@H](NC(=O)c2ccc(NCCOCCOCCOCCOCCNC(=O)[C@H]3CC(=O)N(C)[C@@H]3c3cccnc3)nc2)C1 [Example 128, N-((1R,2S,5R)-5-(Isopropyl(methyl)amino)-2-((S)-2-oxo-3-((6-(trifluoromethyl)quinazolin-4-yl)amino)pyrrolidin-1-yl)cyclohexyl)-6-((1-((2S,3S)-1-methyl-5-oxo-2-(pyridin-3-yl)pyrrolidin-3-yl)-1-oxo-5,8,11, 14-tetraoxa-2-azahexadecan-16-yl)amino) nicotinamide] | 1.58
CC(C)N(C)[C@@H]1CC[C@H](N2CC[C@H](Nc3ncnc4ccc(C(F)(F)F)cc34)C2=O)[C@H](NC(=O)[C@H]2CC[C@@H](NC(=O)CCOCCCOCCCNC(=O)[C@H]3CC(=O)N(C)[C@@H]3c3cccnc3)CC2)C1 [Example 197, (2S,3S)-N-(3-(3-(3-(((1S,4s)-4-(((1R,2S,5R)-5-(Isopropyl(methyl)amino)-2-((S)-2-oxo-3-((6-(trifluoromethyl)quinazolin-4-yl)amino)pyrrolidin-1-yl)cyclohexyl)carbamoyl)cyclohexyl)amino)-3-oxopropoxy)propoxy)propyl)-1-methyl-5-oxo-2-(pyridin-3-yl)pyrrolidine-3-carboxamide] | 1
CC(C)N(C)[C@@H]1CC[C@H](N2CC[C@H](Nc3ncnc4ccc(C(F)(F)F)cc34)C2=O)[C@H](NC(=O)[C@H]2C[C@H](NC(=O)CCO[C@H]3CC[C@H](OCCNC(=O)[C@H]4CC(=O)N(C)[C@@H]4c4cccnc4)CC3)C2)C1 [Example 117] | 3.98
CC(C)N(C)[C@@H]1CC[C@H](N2CC[C@H](Nc3ncnc4ccc(C(F)(F)F)cc34)C2=O)[C@H](NC(=O)C2CCN(C3CCN(C(=O)CCCCCNC(=O)[C@H]4CC(=O)N(C)[C@@H]4c4cccnc4)CC3)CC2)C1 [Example 87, N-((1R,2S,5R)-5-(Isopropyl(methyl)amino)-2-((S)-2-oxo-3-((6-(trifluoromethyl)quinazolin-4-yl)amino)pyrrolidin-1-yl)cyclohexyl)-1'-(6-((2S,3S)-1-methyl-5-oxo-2-(pyridin-3-yl)pyrrolidine-3-carboxamido)hexanoyl)-[1,4'-bipiperidine]-4-carboxamide] | 0.398
